# According to PubChem BioAssay AID492982 (Sanford-Burnham Center for Chemical Genomics, 2010):
# Active and inactive are the calls of the source.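 Rule for the calls: active = mean EC50 below 10 µM; inactive = the rest.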
# Biological target: Type-1 angiotensin II receptor (Homo sapiens) (UniProt P30556)
# Experiment: AT1 receptor agonists, beta-arrestin recruitment, SAR follow-up, selectivity assay for APJ agonist project, cell-based, CHO-K1 PathHunter, luminescence, set 3 (AID 492982)
# Conditions: CHO-K1 AGTR1 PathHunter beta-arrestin, 90 min
# Chain of Type-1 angiotensin II receptor (Homo sapiens) (P30556 whole entry, looked up): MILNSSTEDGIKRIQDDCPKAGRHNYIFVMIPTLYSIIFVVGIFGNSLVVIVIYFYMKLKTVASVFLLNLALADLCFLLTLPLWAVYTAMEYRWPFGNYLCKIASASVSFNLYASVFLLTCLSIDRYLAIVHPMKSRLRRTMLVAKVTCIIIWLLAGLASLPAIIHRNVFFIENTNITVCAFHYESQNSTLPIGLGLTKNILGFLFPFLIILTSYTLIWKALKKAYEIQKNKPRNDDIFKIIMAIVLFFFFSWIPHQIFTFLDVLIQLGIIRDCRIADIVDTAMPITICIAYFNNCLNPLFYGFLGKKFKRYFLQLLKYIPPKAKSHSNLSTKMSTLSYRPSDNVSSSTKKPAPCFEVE
row,EC50,Compound
1,> 79 µM (inactive),CC1=CC(=O)C(C(C)C)=C/C1=N/OS(=O)(=O)c1ccc(F)cc1
2,> 79 µM (inactive),CC1=CC(=O)C(C(C)C)=C/C1=N/OS(=O)(=O)c1ccc(C(C)C)cc1
3,> 79 µM (inactive),CC1=CC(=O)C(C(C)C)=C/C1=N/OS(=O)(=O)c1ccc(C#N)cc1
